Assay results as given in patent US10344032B2, “Agents for treating neurogenic inflammation and neuropathic hyperalgesia related disorders” (PÉCSI TUDOMÁNYEGYETEM, priority 2014, dated 2019).

How the values were obtained:
sst4 receptor = biological target: T1, sst4 receptor (Homo sapiens, UniProt P31391); assay: Somatostatin sst4 receptor-coupled G-protein activation assay ([35S]GTPγS binding); format: biochemical; conditions: 100 nM concentration; membrane fractions of CHO cells stably expressing the sst4 receptor; percentage over specific binding in absence of agonists
T1 construct: expressed in transfected cells
Description: [^35S]GTPγS binding assay is a functional test determining agonist-induced and receptor-mediated G-protein activation which is based on the increase in guanine nucleotide exchange at G-proteins upon agonist stimulation. The interaction of a G protein-coupled receptor (GPCR) with the G protein is the first step in the transduction of the receptor binding signal to the activation of the second-messenger systems. We measured the level of [^35S]-GTPγS bound to the α subunit of G proteins and determined the efficacy of the compounds. Compounds which elicited 200% [^35S]GTPγS binding in nanomolar concentration were considered effective agonist. The examined compounds were added into the medium in 1 nM, 10 nM, 100 nM 1 μM and 10 μM concentrations.
Membrane fractions were prepared from CHO cells stably expressing the sst4 receptor in Tris-EGTA buffer (50 mM Tris-HCl, 1 mM EGTA, 3 mM MgCl2, 100 mM NaCl, pH 7.4). These membrane fractions (˜10 μg of protein/sample) were incubated at 30° C. for 60 min in the same Tris-EGTA buffer containing [^35S]GTPγS (0.05 nM) and increasing concentrations (10^−9 to 10^−5 M) of test compounds in the presence of 30 μM GDP in a final volume of 500 μl. Non-specific binding was determined in the presence of 10 μM unlabelled GTPγS. Total binding was measured in the absence of test compounds. To calculate the specific binding, non-specific binding was subtracted from total binding. The reaction was terminated by filtrating the samples through Whatman GF/B glass fiber filters. Using 48-well Slot Blot Manifold from Cleaver Scientific filters were washed three times with ice-cold 50 mM Tris-HCl buffer (pH 7.4). After drying for 60 min at 37° C., radioactivity was measured in scintillation liquid in a Packard Tri-Carb 2800 TR scintillation counter. Test compound-induced G-protein stimulation was given as percentage over the specific [^35S]GTPγS binding observed in the absence of agonists.

[1] = system: sensory nerve terminals of isolated rat tracheae; assay: Electrical field stimulation-induced release of CGRP from sensory nerve terminals of isolated rat tracheae; conditions: 500 nM; absolute release = stimulated + post-stimulated fractions minus basal release
Experimental: Rats were exsanguinated in deep anaesthesia (sodium thiopental, 50 mg/kg i.p.), then the whole trachea was removed and cleaned of fat and adhering connective tissues. Tracheae from two rats were placed into the same 1.8 ml organ bath to obtain sufficient amount of released peptide and perfused (1 ml/min) with pH—(7.2) controlled oxygenized Krebs solution for 60 minutes (equilibration period) at 37° C. temperature. After discontinuation of the flow, the solution was changed three times for 8 minutes to produce pre-stimulated, stimulated, post-stimulated fractions. Electrical field stimulation (40 V, 0.1 ms, 10 Hz for 120 s; 1200 pulses) was performed to elicit neurotransmitter release at the beginning of the second 8-minute period. […]
CGRP concentration was determined from 400-400 μl samples of the organ bath solutions by means of a selective and sensitive radioimmunoassay method developed in our laboratories and described in details in several previous papers (Nemeth et al. 1998, 1999, 2006; Helyes et al., 1997, 2001, 2006; Borzsei et al., 2008). The released amount of the peptides was calculated as fmol peptide per mg wet tissue (trachea). The absolute EFS-induced CGRP outflow in each experiment was calculated by taking off the basal release measured in the first (pre-stimulated) fraction from the second and third 8-min fractions and then adding these values. […]

rat [2] = assay: Partial sciatic nerve ligation (Seltzer operation) mechanical hyperalgesia (Randall-Selitto test); format: in vivo; conditions: 100 μg/kg p.o., 60 min; 7 days after partial sciatic nerve ligation; Randall-Sellitto test
Experimental: Wistar rats were anaesthetised with sodium-pentobarbital (Euthasol, 50 mg/kg i.p.). The common sciatic nerve was exposed unilaterally on the right side high in the thigh and ⅓-½ of the nerve trunk was carefully separated and tightly ligated using a siliconised silk suture (Ethicone 9-0). Then the wound was closed and the animals were allowed to survive for 7 days (Seltzer et al., 1990). During this period, signs of spontaneous pain (holding the legs in elevated position), mechanical hyperalgesia and allodynia developed.
Mechanonociceptive threshold of the hindpaws was measured with analgesimetry (Randall-Sellitto test) and touch sensitivity of the plantar surface with dynamic plantar aesthesiometry on the same animals. Hyperalgesia (decrease of the mechanonociceptive threshold) and allodynia (decrease of touch sensitivity) were expressed in % compared to the initial pre-operation control values. Significant decrease of the mechanonociceptive thresholds, as well as touch sensitivity thresholds developed 7 days after the surgery (Szolcsanyi et al. 2003; Sandor et al. 2006). […]
b) The mechanonociceptive thresholds of the hindpaw was measured with the Ugo Basile Analgesimeter (7210, Comerio, Italy; Randall-Selitto test). […] The threshold force which elicited withdrawal was read on an analog scale calibrated in grams. […]

rat [3] = assay: Plantar incision-induced mechanical allodynia (dynamic plantar aesthesiometer), postoperative pain model; format: in vivo; conditions: 100 μg/kg p.o., measured 60 min later; one day after plantar incision; dynamic plantar aesthesiometry
Experimental: Rats were anaesthesized with sodium-pentobarbital (Euthasol, 40 mg/kg i.p.) and a 1 cm longitudinal incision was made through the skin, fascia and muscle of the plantar aspect of the hindpaw. Significant decrease of both the thermonociceptive and mechanonociceptive thresholds (heat and mechanical allodynia) of the paw develops 1 day after this procedure.
One hundred and forty five (145) female Wistar rats (150-250 g) kept in the Animal House of the University of Pecs in a temperature-controlled room provided with a 12-hour light-dark cycle, standard rat chow and water ad libitum were used in this experimental series. They were brought to the air-conditioned laboratory the day before the experiment started. Throughout the total study the same assistant handled all the animals. […] Touch sensitivity was measured with a dynamic plantar aesthesiometer (DPA) and the thermonociceptive threshold was determined with an increasing temperature water-bath (ITWB) on the same rats (see below). […] Test compounds were administered p.o. and post-dose touch sensitivity and thermonociceptive thresholds were measured 60 min later. […]
a) Touch sensitivity of the plantar surface of the paw was measured with the Ugo Basile Dynamic Plantar Aesthesiometer (DPA; 37400, Comerio, Italy), which is an electronic von Frey device. […]

T1 sequence (P31391 whole entry): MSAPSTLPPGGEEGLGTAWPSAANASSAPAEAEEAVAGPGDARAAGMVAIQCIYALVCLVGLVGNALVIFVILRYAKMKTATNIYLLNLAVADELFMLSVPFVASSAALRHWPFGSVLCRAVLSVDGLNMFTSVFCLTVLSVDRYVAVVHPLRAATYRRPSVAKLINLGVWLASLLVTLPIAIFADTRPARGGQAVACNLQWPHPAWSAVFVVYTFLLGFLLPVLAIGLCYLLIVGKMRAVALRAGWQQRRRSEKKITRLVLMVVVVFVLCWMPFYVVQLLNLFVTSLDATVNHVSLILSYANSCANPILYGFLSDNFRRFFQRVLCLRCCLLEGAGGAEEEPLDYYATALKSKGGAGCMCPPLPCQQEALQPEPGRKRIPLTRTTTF

COc1ccc(CCNc2ncnc3c2c(C)c(C)n3Cc2ccccc2)cc1 [Example 2, (7-Benzyl-5,6-dimethyl-7H-pyrrolo[2,3-d]pyrimidin-4-yl)-[2-(4-methoxy-phenyl)-ethyl]-amine]
[35S]GTPγS binding (G-protein activation) (sst4 receptor): 245.67%
inhibition on the absolute CGRP release [1]: 72.5%
melting point: 100 to 101.9 °C

Cc1c(C)n(Cc2ccccc2)c2ncnc(NCCc3ccc(O)cc3)c12 [Example 4, 4-[2-(7-Benzyl-5,6-dimethyl-7H-pyrrolo[2,3-d]pyrimidin-4-ylamino)-ethyl]-phenol]
reduction of mechanical hyperalgesia (rat [2]): 46%
melting point: 198 to 199 °C

Cc1c(C)n(Cc2ccccc2)c2ncnc(NCCc3cccc(Cl)c3)c12 [Example 39, (7-Benzyl-5,6-dimethyl-7H-pyrrolo[2,3-d]pyrimidin-4-yl)-[2-(3-chloro-phenyl)-ethyl]-amine]
reduction of mechanical hyperalgesia (rat [2]): 31%
melting point: 205 to 207 °C

COc1cccc(CCNc2ncnc3c2c(C)c(C)n3Cc2ccccc2)c1 [Example 40, (7-Benzyl-5,6-dimethyl-7H-pyrrolo[2,3-d]pyrimidin-4-yl)-[2-(3-methoxy-phenyl)-ethyl]-amine]
[35S]GTPγS binding (G-protein activation) (sst4 receptor): 202.67%
melting point: 185 to 187.2 °C

COc1ccc(CCNc2ncnc3c2c(C)c(C)n3CCCN(C)C)cc1 [Example 41, [7-(3-Dimethylamino-propyl)-5,6-dimethyl-7H-pyrrolo[2,3-d]pyrimidin-4-yl]-[2-(4-methoxy-phenyl)-ethyl]-amine]
[35S]GTPγS binding (G-protein activation) (sst4 receptor): 207.67%

CC(=O)Nc1ccc(CCNc2ncnc3c2c(C)c(C)n3CCCN(C)C)cc1 [Example 51, N-(4-{2-[7-(3-Dimethylamino-propyl)-5,6-dimethyl-7H-pyrrolo[2,3-d]pyrimidin-4-ylamino]-ethyl}-phenyl)-acetamide]
inhibition on the absolute CGRP release [1]: 79.55%
decrease of mechanical allodynia (rat [3]): 63%
melting point: 132.7 to 133.7 °C

Cc1c(C)n(Cc2ccccc2)c2ncnc(NCCc3cccc(O)c3)c12 [Example 58, 3-[2-(7-Benzyl-5,6-dimethyl-7H-pyrrolo[2,3-d]pyrimidin-4-ylamino)-ethyl]-phenol]
[35S]GTPγS binding (G-protein activation) (sst4 receptor): 194.5%
decrease of mechanical allodynia (rat [3]): 64.7%
melting point: 208.7 to 209.2 °C

Cc1c(C)n(Cc2ccccc2)c2ncnc(NCCc3ccc(N(C)C)cc3)c12 [Example 62, (7-Benzyl-5,6-dimethyl-7H-pyrrolo[2,3-d]pyrimidin-4-yl)-[2-(4-dimethylamino-phenyl)-ethyl]-amine]
melting point: 95 to 96.6 °C
